According to US8377876B2, “Pediatric amino acid solution for parenteral nutrition” (Fresenius Kabi Deutschland GmbH, priority 2006, dated 2013):
Peptide text beside a SMILES is read from it.

Test: Thermal sterilization of 200 g/l alanyl-glutamine solution; degradation products determined after sterilization
Format: physicochemical
Settings: sterilization at 121° C., 124° C. and 127° C., pH 5 to 6, constant F0 12-12.5
Method: The sterilization temperature is in this connection preferably ≧124° C. and particularly preferably ≧127° C. The pH is preferably between 5 and 6.5. It is possible to reduce the holding times for the thermal sterilization on use of higher temperatures. Under the preferred conditions, distinctly smaller amounts of degradation products are found in the sterilized product (example 3).
A solution of 200 g/l alanyl-glutamine was sterilized at temperatures of 121° C., 124° C. and 127° C. The pH was varied between pH 5, pH 5.5 and pH 6. […] The F0 value describes the sterilization efficiency and corresponds to the holding time at 121.11° C. For sterilization at higher temperatures, the holding times were reduced to maintain a constant F0 value. After the sterilization, the amounts of the degradation products of the dipeptide alanyl-glutamine, cyclo-alanyl-glutamine and L-pyro-alanyl-glutamine were determined. Lower values for these degradation products are a direct indication of the stability of the dipeptide during the sterilization.

C[C@H](N)C(=O)N[C@@H](CCC(N)=O)C(=O)O [alanyl-glutamine, L-Alanyl-L-glutamine] (H-Ala-Gln-OH)
values for the degradation products (stability of the dipeptide during sterilization): fell at higher temperature
